Source: patent US20160083397A1, “PARTHENOLIDE DERIVATIVES AND THEIR MODULATION OF PROCESSES CONTROLLED BY REGULATED TRANSLATION” (THE BOARD OF TRUSTEES OF THE UNIVERSITY OF ARKANSAS, priority 2013, published 2016)
“And” between values parts separate entries of the source, which are not always exact repeats. Equal values may be shown once.

Legend:
[1] = test system: PC-3; conditions: for GI50: PC-3, Prostate Cancer
[2] = test system: DU-145; conditions: for GI50: DU-145, Prostate Cancer
[3] = test system: SR; conditions: for GI50: SR, Leukemia
[4] = test system: SW-620; conditions: for GI50: SW-620, Colon Cancer
[5] = test system: MDA-MB-435; conditions: for GI50: MDA-MB-435, Melanoma
[6] = test system: KM12; conditions: for GI50: KM12, Colon Cancer
[7] = test system: HOP-62; conditions: for GI50: HOP-62, Lung Cancer
[8] = test system: HS 578T; conditions: for GI50: HS 578T, Breast Cancer
[9] = test system: OVCAR-5; conditions: for GI50: OVCAR-5, Ovarian Cancer
[10] = test system: K-562; conditions: for GI50: K-562, Leukemia
[11] = test system: NCI-H460; conditions: for GI50: NCI-H460, Lung Cancer
[12] = test system: HCT-15; conditions: for GI50: HCT-15, Colon Cancer
[13] = test system: MDA-MB-468; conditions: for GI50: MDA-MB-468, Breast Cancer
[14] = test system: NCI/ADR-RES; conditions: for GI50: NCI/ADR-RES, Ovarian Cancer
[15] = test system: A498; conditions: for GI50: A498, Renal Cancer
[16] = test system: SF-539; conditions: for GI50: SF-539, CNS Cancer
[17] = test system: NCI-H522; conditions: for GI50: NCI-H522, Lung Cancer
[18] = test system: SK-MEL-28; conditions: for GI50: SK-MEL-28, Melanoma
[19] = test system: CCRF-CEM; conditions: for GI50: CCRF-CEM, Leukemia
[20] = test system: ACHN; experiment: NCI 60-cell line five dose screen: ACHN; conditions: Renal Cancer
[21] = test system: SNB-19; conditions: for GI50: SNB-19, CNS Cancer
[22] = test system: SK-MEL-2; experiment: NCI 60-cell line five dose screen: SK-MEL-2; conditions: SK-MEL-2, Melanoma
[23] = test system: HL-60(TB); conditions: for GI50: Leukemia
[24] = test system: MOLT-4; conditions: for GI50: MOLT-4, Leukemia
[25] = test system: SF-295; conditions: for GI50: SF-295, CNS Cancer
[26] = test system: UACC-62
[27] = test system: ACHN
[28] = test system: HCC-2998; experiment: NCI 60-cell line five dose screen: HCC-2998; conditions: HCC-2998, Colon Cancer
[29] = test system: RXF 393; experiment: NCI 60-cell line five dose screen: RXF 393; conditions: RXF 393, Renal Cancer
[30] = test system: TK-10; experiment: NCI 60-cell line five dose screen: TK-10; conditions: TK-10, Renal Cancer

“13-(2-iodoimidazole)parthenolide [PNR-5-65]” gave a CC50 [1] of over 100 µM, a GI50 [1] of 23.1 µM and a CC50 [2] of 68.3 µM. For the same substance, the GI50 [2] was 18.8 µM, the CC50 [3] was over 100 µM and the GI50 [3] was 13.6 µM. The CC50 [4] was 62.8 µM, the GI50 [4] was 11.4 µM and the CC50 [5] was 59.5 µM. It also gave a GI50 [5] of 13.8 µM, a CC50 [6] of over 100 µM and a GI50 [6] of 43.2 µM. For the same substance, the CC50 [7] was over 100 µM, the GI50 [7] was 47.4 µM and the CC50 [8] was over 100 µM. The GI50 [8] was 21.3 µM, the CC50 [9] was 52.5 µM and the GI50 [9] was 13.7 µM. For the same substance, the CC50 [10] was 90 µM, the GI50 [10] was 7.36 µM and the CC50 [11] was over 100 µM. For the same substance, the GI50 [11] was 30.1 µM, the CC50 [12] was 55.6 µM and the GI50 [12] was 10.7 µM. The CC50 [13] was 60.4 µM, the GI50 [13] was 11.1 µM and the CC50 [14] was over 100 µM. It also gave a GI50 [14] of 31.2 µM, a CC50 [15] of over 100 µM and a GI50 [15] of 45.2 µM. The CC50 [16] was 60.8 µM, the GI50 [16] was 16.7 µM and the CC50 [17] was 6.34 µM. For the same substance, the GI50 [17] was 1.77 µM and 1.71 µM, the CC50 [18] was 73 µM and the GI50 [18] was 16.1 µM. It also gave a CC50 [19] of 79.6 µM, a GI50 [19] of 6.13 µM and a GI50 [20] of 10.5 µM. For the same substance, the CC50 [21] was over 100 µM, the GI50 [21] was over 100 µM and the GI50 [22] was 18.6 µM. The CC50 ([22]; read-out: LC50) was 66.1 µM, the GI50 [23] was 6.9 µM and the CC50 [24] was 97.9 µM. The GI50 [24] was 19.6 µM, the CC50 [25] was over 100 µM and the GI50 [25] was 32.1 µM.
With “(E)-13-(3-thiopheno)parthenolide [PNR-5-53]” the CC50 [1] was over 100 µM, the GI50 [1] was 22.7 µM and the CC50 [2] was over 100 µM. For the same substance, the GI50 [2] was 25.7 µM, the CC50 [3] was over 100 µM and the GI50 [3] was 20.7 µM. It also gave a CC50 [4] of over 100 µM, a GI50 [4] of 22.9 µM and a CC50 [5] of over 100 µM. For the same substance, the GI50 [5] was 18.3 µM, the CC50 [6] was 86.7 µM and the GI50 [6] was 20.4 µM. The CC50 [7] was over 100 µM, the GI50 [7] was 35.8 µM and the CC50 [8] was over 100 µM. For the same substance, the GI50 [8] was 21.5 µM, the CC50 [9] was over 100 µM and the GI50 [9] was 48.1 µM. For the same substance, the CC50 [10] was over 100 µM, the GI50 [10] was 25.2 µM and the CC50 [11] was over 100 µM. For the same substance, the GI50 [11] was 29.3 µM, the CC50 [26] was 76.6 µM and the GI50 ([26]; UACC-62, Melanoma) was 13.8 µM. For the same substance, the CC50 [12] was over 100 µM, the GI50 [12] was 22.6 µM and the CC50 [13] was over 100 µM. For the same substance, the GI50 [13] was 17.7 µM, the CC50 [14] was over 100 µM and the GI50 [14] was 23.6 µM. The CC50 [15] was over 100 µM, the GI50 [15] was 17.5 µM and the GI50 [16] was 16.1 µM. For the same substance, the CC50 [17] was 59.7 µM, the GI50 [17] was 5.44 µM and the CC50 [18] was over 100 µM. The GI50 [18] was 29.4 µM, the CC50 [19] was over 100 µM and the GI50 [19] was 19.1 µM. The GI50 [20] was 32.8 µM, the CC50 [21] was over 100 µM and the GI50 [21] was 47.6 µM. The GI50 [23] was 21.7 µM, the CC50 ([23]; read-out: LC50, Leukemia) was 99.9 µM and the CC50 [27] was over 100 µM. The CC50 [24] was over 100 µM, the GI50 [24] was 25.7 µM and the GI50 [28] was 33.8 µM. For the same substance, the CC50 ([28]; read-out: LC50) was over 100 µM, the GI50 [29] was 18.1 µM and the CC50 ([29]; read-out: LC50) was over 100 µM. For the same substance, the GI50 [30] was 34.7 µM, the CC50 ([30]; read-out: LC50) was over 100 µM and the CC50 [25] was over 100 µM. It also gave a GI50 [25] of 28.5 µM.
